Read-outs that look alike come from different tables or passages of the source.
What was measured:
[1] = MTT assay for cell viability / cytotoxicity; assay type: cell-based; conditions: mouse, RAW 264.7 macrophages, means ± SD of three independent experiments
Protocol: In addition to NO inhibition, the cytotoxic activity of compounds 1a–i, 2a–i, 3a–h, and 4a–h in RAW 264.7 macrophages were measured using the 3-(4,5-dimethylthiazol-2-yl)-2,5-diphenyltetrazolium bromide (MTT) assay to check whether the effects on the production of NO was caused by nonspecific cytotoxicity.
(§1) Cell culture and sample treatment were performed as reported in the literature. The 3-(4,5-dimethylthiazol-2-yl)-2,5-diphenyltetrazolium bromide (MTT) assay for cell viability followed the procedure previously described in the literature. Nitrite determination was carried as described in the literature, and the PGE2 assay was carried as previously described.

[2] = tested on: LPS-induced RAW 264.7 macrophages; assay: Nitric oxide (NO) production inhibition in LPS-induced RAW 264.7 macrophages (nitrite determination); assay type: cell-based; conditions: for inhibition at 1 µM: RAW264.7, 1 µM; for inhibition at 5 µM: RAW264.7, 5 µM; for inhibition at 10 µM: RAW264.7, 10 µM
Protocol: The ability of a certain molecule to inhibit the production of inflammatory mediator(s) is one of successful approach to treatment both chronic and acute inflammation.
as §1

[3] = Mus musculus, LPS-induced RAW 264.7 macrophages
[4] = Mus musculus, RAW264.7, nitric oxide production, means ± SD of three independent experiments, read-out: NO (IC50)

| IC50 [2, 4] [µM] | melting point [°C] | IC50 ([2]; Mus musculus, RAW264.7, read-out: NO (IC50)) [µM] | Compound | IC50 [1] [µM] | inhibition at 1 µM [2, 3] [%] | inhibition at 5 µM [2, 3] [%] | inhibition at 10 µM [2, 3] [%] | Nitric Oxide % Inhibition ([2]; 10 µM, LPS-induced RAW 264.7 macrophages) [%] | inhibition at 40 µM ([2]; Mus musculus, RAW264.7, read-out: Nitric Oxide % Inhibition) [%] |
| --- | --- | --- | --- | --- | --- | --- | --- | --- | --- |
| 10.6 ± 0.51 | 178 to 180 |  | O=S(=O)(NCCNc1cc(-c2cn(-c3ccccc3)nc2-c2cccc(O)c2)ccn1)c1ccc(Br)cc1 [Compound 3b, 4-Bromo-N-(2-((4-(3-(3-hydroxyphenyl)-1-phenyl-1H-pyrazol-4-yl)pyridin-2-yl)amino)ethyl)benzenesulfonamide] | 24.3 ± 0.41 | 15.8 ± 0.16 | 24.4 ± 0.52 | 48.7 ± 1.74 |  |  |
| 15.2 ± 0.17 | 100 to 102 |  | O=S(=O)(NCCNc1cc(-c2cn(-c3ccccc3)nc2-c2cccc(O)c2)ccn1)c1ccc(Cl)cc1 [Compound 3c, 4-Chloro-N-(2-((4-(3-(3-hydroxyphenyl)-1-phenyl-1H-pyrazol-4-yl)pyridin-2-yl)amino)ethyl)benzenesulfonamide] | 22.7 ± 0.3 | 6.34 ± 0.06 | 11.7 ± 0.71 | 33.8 ± 0.89 |  |  |
| 22.2 ± 0.31 |  |  | O=S(=O)(NCCNc1cc(-c2cn(-c3ccccc3)nc2-c2cccc(O)c2)ccn1)c1ccc(C(F)(F)F)cc1 [Compound 3f, N-(2-((4-(3-(3-Hydroxyphenyl)-1-phenyl-1H-pyrazol-4-yl)pyridin-2-yl)amino)ethyl)-4-(trifluoromethyl)benzenesulfonamide] |  | 6.08 ± 0.07 | 15.2 ± 0.91 | 36.5 ± 0.59 |  |  |
|  | 146 to 148 |  | O=S(=O)(NCCNc1cc(-c2cn(-c3ccccc3)nc2-c2cccc(O)c2)ccn1)c1cccc2ccccc12 [Compound 3h, N-(2-((4-(3-(3-Hydroxyphenyl)-1-phenyl-1H-pyrazol-4-yl)pyridin-2-yl)amino)ethyl)naphthalene-1-sulfonamide] |  |  |  |  |  |  |
| 8.34 ± 0.11 |  |  | O=S(=O)(NCCCNc1cc(-c2cn(-c3ccccc3)nc2-c2cccc(O)c2)ccn1)c1ccc(Br)cc1 [Compound 4b, 4-Bromo-N-(3-((4-(3-(3-hydroxyphenyl)-1-phenyl-1H-pyrazol-4-yl)pyridin-2-yl)amino)propyl)benzenesulfonamide] | 19.5 ± 0.49 | 8.19 ± 0.06 | 22.2 ± 0.72 | 63.9 | 63.82 ± 2.14 |  |
| 11.3 ± 0.16 |  |  | O=S(=O)(NCCCNc1cc(-c2cn(-c3ccccc3)nc2-c2cccc(O)c2)ccn1)c1ccc(F)cc1 [Compound 4d, 4-Fluoro-N-(3-((4-(3-(3-hydroxyphenyl)-1-phenyl-1H-pyrazol-4-yl)pyridin-2-yl)amino)propyl)benzenesulfonamide] | 12.6 ± 0.22 | 9.02 ± 0.03 | 20.8 ± 0.36 | 48.5 ± 1.79 |  |  |
| 9.45 ± 0.15 |  |  | O=S(=O)(NCCCNc1cc(-c2cn(-c3ccccc3)nc2-c2cccc(O)c2)ccn1)c1ccc(C(F)(F)F)cc1 [Compound 4f, N-(3-((4-(3-(3-Hydroxyphenyl)-1-phenyl-1H-pyrazol-4-yl)pyridin-2-yl)amino)propyl)-4-(trifluoromethyl)benzenesulfonamide] | 17.7 ± 0.61 | 4.87 ± 0.14 | 18.9 ± 1.02 | 53.8 ± 1.87 |  |  |
|  |  | 29.32 ± 0.15 | CC(=N)NCCCC[C@H](N)C(=O)O [L-NIL, N^6-(1-Iminoethyl)-L-lysine, reference compound] |  |  |  |  |  | 77.9 ± 4.25 |

Second part, the compound before the results:

| Compound | IC50 [2, 4] [µM] | melting point [°C] | IC50 ([2]; Mus musculus, RAW264.7, read-out: NO (IC50)) [µM] | IC50 [1] [µM] | inhibition at 1 µM [2, 3] [%] | inhibition at 5 µM [2, 3] [%] | inhibition at 10 µM [2, 3] [%] | Nitric Oxide % Inhibition ([2]; 10 µM, LPS-induced RAW 264.7 macrophages) [%] | inhibition at 40 µM ([2]; Mus musculus, RAW264.7, read-out: Nitric Oxide % Inhibition) [%] |
| --- | --- | --- | --- | --- | --- | --- | --- | --- | --- |
| COc1cccc(-c2nn(-c3ccccc3)cc2-c2ccnc(NCCNS(=O)(=O)c3ccccc3)c2)c1 [Compound 1a, N-(2-((4-(3-(3-Methoxyphenyl)-1-phenyl-1H-pyrazol-4-yl)pyridin-2-yl)amino)ethyl)benzenesulfonamide] | 9.17 ± 0.52 | 104 to 106 |  | 245.8 ± 1.91 | 17.35 ± 0.09 | 35.4 ± 1.14 | 52.9 ± 3.12 |  |  |
| COc1cccc(-c2nn(-c3ccccc3)cc2-c2ccnc(NCCNS(=O)(=O)c3ccc(Cl)cc3)c2)c1 [Compound 1c, 4-Chloro-N-(2-((4-(3-(3-methoxyphenyl)-1-phenyl-1H-pyrazol-4-yl)pyridin-2-yl)amino)ethyl)benzenesulfonamide] | 10.1 ± 0.63 | 132 to 134 |  | 219.39 ± 0.14 | 13.27 ± 0.08 | 24.76 ± 0.17 | 49.9 ± 1.25 |  |  |
| COc1ccc(S(=O)(=O)NCCNc2cc(-c3cn(-c4ccccc4)nc3-c3cccc(OC)c3)ccn2)cc1 [Compound 1e, 4-Methoxy-N-(2-((4-(3-(3-methoxyphenyl)-1-phenyl-1H-pyrazol-4-yl)pyridin-2-yl)amino)ethyl)benzenesulfonamide] | 13.4 ± 0.72 | 144 to 146 |  | 285 ± 4.18 | 13.52 ± 0.11 | 16.1 ± 0.09 | 41.5 ± 0.99 |  |  |
| COc1cccc(-c2nn(-c3ccccc3)cc2-c2ccnc(NCCNS(=O)(=O)c3cccc(F)c3)c2)c1 [Compound 1h, 3-Fluoro-N-(2-((4-(3-(3-methoxyphenyl)-1-phenyl-1H-pyrazol-4-yl)pyridin-2-yl)amino)ethyl)benzenesulfonamide] | 12.6 ± 0.29 | 118 to 120 |  | 244.2 ± 2.23 | 11.12 ± 0.02 | 26.2 ± 0.99 | 41.2 ± 2.15 |  |  |
| COc1cccc(-c2nn(-c3ccccc3)cc2-c2ccnc(NCCNS(=O)(=O)c3cccc4ccccc34)c2)c1 [Compound 1i, N-(2-((4-(3-(3-Methoxyphenyl)-1-phenyl-1H-pyrazol-4-yl)pyridin-2-yl)amino)ethyl)naphthalene-1-sulfonamide] |  | 178 to 180 |  |  |  |  |  |  |  |
| COc1cccc(-c2nn(-c3ccccc3)cc2-c2ccnc(NCCCNS(=O)(=O)c3ccc(Br)cc3)c2)c1 [Compound 2b, 4-Bromo-N-(3-((4-(3-(3-methoxyphenyl)-1-phenyl-1H-pyrazol-4-yl)pyridin-2-yl)amino)propyl)benzenesulfonamide] | 9.5 ± 0.34 | 117 to 119 |  | 384.7 ± 1.29 | 0.01 ± 0.03 | 28.1 ± 0.66 | 52.4 ± 1.62 |  |  |
| COc1cccc(-c2nn(-c3ccccc3)cc2-c2ccnc(NCCCNS(=O)(=O)c3ccc(F)cc3)c2)c1 [Compound 2d, 4-Fluoro-N-(3-((4-(3-(3-methoxyphenyl)-1-phenyl-1H-pyrazol-4-yl)pyridin-2-yl)amino)propyl)benzenesulfonamide] | 12.4 ± 0.4 | 92 to 94 |  | 260.3 ± 2.24 | 7.81 ± 0.03 | 23 ± 0.89 | 55 ± 4.01 |  |  |
| COc1ccc(S(=O)(=O)NCCCNc2cc(-c3cn(-c4ccccc4)nc3-c3cccc(OC)c3)ccn2)cc1 [Compound 2e, 4-Methoxy-N-(3-((4-(3-(3-methoxyphenyl)-1-phenyl-1H-pyrazol-4-yl)pyridin-2-yl)amino)propyl)benzenesulfonamide] | 9.96 ± 0.18 | 124 to 126 |  | > 400 | 2.02 ± 0.01 | 23.9 ± 1.12 | 50.2 ± 1.88 |  |  |
| COc1cccc(-c2nn(-c3ccccc3)cc2-c2ccnc(NCCCNS(=O)(=O)c3ccc(C)cc3)c2)c1 [Compound 2f, N-(3-((4-(3-(3-Methoxyphenyl)-1-phenyl-1H-pyrazol-4-yl)pyridin-2-yl)amino)propyl)-4-methylbenzenesulfonamide] | 9.16 ± 0.27 | 94 to 96 |  | 323 ± 3.35 | 4.36 ± 0.04 | 19.8 ± 0.96 | 46.3 ± 3.21 |  |  |
| COc1cccc(-c2nn(-c3ccccc3)cc2-c2ccnc(NCCCNS(=O)(=O)c3ccc(C(F)(F)F)cc3)c2)c1 [Compound 2g, N-(3-((4-(3-(3-Methoxyphenyl)-1-phenyl-1H-pyrazol-4-yl)pyridin-2-yl)amino)propyl)-4-(trifluoromethyl)benzenesulfonamide] | 10.5 ± 0.44 |  |  | 252.6 ± 1.87 | 2.91 ± 0.02 | 26.3 ± 1.01 | 56 ± 0.89 |  |  |
| COc1cccc(-c2nn(-c3ccccc3)cc2-c2ccnc(NCCCNS(=O)(=O)c3cccc(F)c3)c2)c1 [Compound 2h, 3-Fluoro-N-(3-((4-(3-(3-methoxyphenyl)-1-phenyl-1H-pyrazol-4-yl)pyridin-2-yl)amino)propyl)benzenesulfonamide] | 9.19 ± 0.25 |  |  | 246 ± 2.71 | 4.87 ± 0.05 | 24.1 ± 0.91 | 41.5 ± 1.12 |  |  |
| COc1cccc(-c2nn(-c3ccccc3)cc2-c2ccnc(NCCCNS(=O)(=O)c3cccc4ccccc34)c2)c1 [Compound 2i, N-(3-((4-(3-(3-Methoxyphenyl)-1-phenyl-1H-pyrazol-4-yl)pyridin-2-yl)amino)propyl)naphthalene-1-sulfonamide] |  | 134 to 136 |  |  |  |  |  |  |  |
| O=S(=O)(NCCNc1cc(-c2cn(-c3ccccc3)nc2-c2cccc(O)c2)ccn1)c1ccccc1 [Compound 3a, N-(2-((4-(3-(3-Hydroxyphenyl)-1-phenyl-1H-pyrazol-4-yl)pyridin-2-yl)amino)ethyl)benzenesulfonamide] | 10.3 ± 0.23 | 100 to 102 |  | 29.8 ± 1.91 | 4.78 ± 0.03 | 21.5 ± 0.37 | 49 ± 1.1 |  |  |

From publication PMC6222820, “Synthesis of New Triarylpyrazole Derivatives Possessing Terminal Sulfonamide Moiety and Their Inhibitory Effects on PGE2 and Nitric Oxide Productions in Lipopolysaccharide-Induced RAW 264.7 Macrophages” (Molecules : A Journal of Synthetic Chemistry and Natural …, 2018)
